How the values were obtained:
[1] = tested on: ABCG1 mRNA; assay: ABCG1 mRNA levels normalized against β-actin mRNA, Taqman real-time RT-PCR, in mouse macrophages; assay type: cell-based; details: 2 μM, data not shown
Experimental: (§1) Where indicated, RNA oligonucleotides targeting both sequences were mixed and used to down-regulate ABCG1 or ABCG4 gene expression. The scrambled control RNA oligonucleotides also were obtained from Dharmacon. An independent set of siRNA targeting ABCG1 (5′[…]3′) or ABCG4 (5′[…]3′) was obtained from Qiagen and used where indicated. For cholesterol efflux assays, mouse peritoneal macrophages were plated in 24- or 48-well plates and cultured in 10% fetal bovine serum and DMEM media at 37° C. for 24 hours. Cells were then transfected with siRNA and LipofectAMINE 2000 at the indicated concentration and labeled with isotopic cholesterol (2 μCi/ml [^3H]cholesterol in 1% fetal bovine serum) in the presence or absence of TO901317 (2 μM) for 48 hours. Cells were washed twice and equilibrated for 30 minutes for the third wash, and then HDL or other acceptors were added for the indicated period. Levels of ABCG1 and ABCG4 mRNAs normalized against β-actin mRNA were determined using Taqman real-time quantititative RT-PCR. The primers and probes were from Applied Biosystems.

[2] = tested on: ABCG4 mRNA; assay: ABCG4 mRNA levels normalized against β-actin mRNA, Taqman real-time RT-PCR, in mouse macrophages; assay type: cell-based; details: 2 μM, data not shown
Experimental: as §1

Question: Which results are given for `O=S(=O)(c1ccccc1)N(CC(F)(F)F)c1ccc(C(O)(C(F)(F)F)C(F)(F)F)cc1` [T0901317]?
Answer: increase of mRNA levels of ABCG1 [1]: 3 fold; increase of mRNA levels of ABCG4 [2]: 2 fold
